From US12239652B2, “Composition for preventing or treating muscular diseases, or for improving muscular functions, containing ganglioside” (INDUSTRY-ACADEMIC COOPERATION FOUNDATION, YONSEI UNIVERSITY, priority 2018, dated 2025)

Tests used:
atrogin-1 = test: RT-PCR of muscle degrading protein mRNA in TNF-α-treated L6 myotubes: atrogin-1; assay type: cell-based; conditions: 50 ng/mL TNF-α, 1 μM
Description: (§1) L6 myoblasts (ATCC) were seeded with DMEM (Hyclone) supplemented with 10% FBS (Hyclone) in a 6-well plate at a density of 1×10^5 cells/well, followed by culture. When the cultured cells reached a confluency of ˜80-85% per well, the media in the wells were replaced with DMEM (Hyclone) supplemented with 2% HS (Hyclone), followed by culture for additional 6 days to induce differentiation into myotubes. During culture for 6 days, the culture media were changed once every other day a total of 3 times. The differentiation-induced cells were harvested and the cell media were replaced with DMEM supplemented with 50 ng/mL TNF-α (PeproTech) in which ganglioside GM3 (Cayman) was dissolved at a concentration of 1 μM or 5 μM. A group treated with 0.01% DMSO instead of the sample was used as a control. Total RNA was isolated from cells using TRIzol reagent (Takara, Kyoto, Japan). The isolated total RNA was quantified using NanoDrop 1000 (Thermo Fisher Scientific Inc., Waltham, MA, USA). 16 μL of the RNA was synthesized into cDNA using Reverse Transcriptase Premix (ELPIS-Biotech) and a PCR system (Gene Amp PCR System 2700; Applied Biosystems, Foster City, CA, USA) at 42° C. for 55 min and 70° C. for 15 min. 3 μL of the synthesized cDNA, the specific primers shown in Table 1 (Bioneer, Daej eon, Korea), and PCR premix (ELPIS-Biotech) were mixed and PCR was repeated 30 times at 95° C. for 30 sec, 60° C. for 1 min, and 72° C. for 1 min. After PCR amplification, cDNA was separated by electrophoresis on a 1.5% agarose gel and the cDNA bands were visualized using a G;BOX EF imaging system (Syngene).
(§2) The procedure of Example 8 was repeated except that cells were treated with ganglioside GM1 (Cayman) at a concentration of 15 μM or 25 μM to investigate the mRNA transcription and expression levels of atrogin-1 and MuRF1 as muscle degrading proteins.
(§3) The procedure of Example 8 was repeated except that cells were treated with ganglioside GD1a (Cayman) at a concentration of 1 μM or 3 μM to investigate the mRNA transcription and expression levels of atrogin-1 and MuRF1 as muscle protein degradation-related enzymes.
(§4) The procedure of Example 8 was repeated except that cells were treated with each of gangliosides GT1b and GQ1b (Cayman) at a concentration of 1 μM to investigate the mRNA transcription and expression levels of atrogin-1 and MuRF1 as muscle protein degradation-related enzymes.

MuRF1 = test: RT-PCR of muscle degrading protein mRNA in TNF-α-treated L6 myotubes: MuRF1; assay type: cell-based; conditions: 50 ng/mL TNF-α, 1 μM
Description: as §1, §2, §3, §4

Wistar rats = test: Muscle mass (soleus weight) in TNF-α-induced muscular atrophy animal model; assay type: in vivo; conditions: 50 mg/kg body weight once a day for 8 weeks; for Average soleus weight: right soleus, control 416.0 ± 19.57
Description: Wistar rats, aged five weeks, were acclimatized for one week and supplied with 100 ng/g of TNF-α for 2 weeks to induce muscular atrophy. The animals were randomly divided into a total of 5 groups, 8 animals per group, depending on their weight. Each of gangliosides GM3, GM1, GD1a, GT1b, and GQ1b (each 50 mg/kg body weight) as experimental groups was suspended in 0.25% carboxymethylcellulose. The suspension was administered at a given time once a day for 8 weeks. A group administered the same amounts of 0.25% carboxymethyl cellulose and TNF-α ingested by each experimental group was used as a control.
After administration of the sample for 8 weeks, the right soleus was dissected and its weight was measured with a microbalance (Mettler PE160, USA).

mTOR = mTOR Sandwich ELISA in L6 myotubes (activity for myogenic induction); assay type: cell-based; conditions: 1 μM, 12-h culture, *P<0.05
Description: The mTOR protein is known to induce the activation of proteins involved in muscle protein synthesis and an increase in muscle mass in the PI3K/Akt signaling pathway in muscle cells when phosphorylated and activated. Thus, the activity of mTOR was confirmed using an mTOR Sandwich ELISA kit (Cell Signaling Technology, Beverly, MA, USA) to determine the activity of ganglioside GM3 for myogenic induction.
L6 myoblasts (ATCC; Manassas, VA, USA) were seeded with Dulbecco's modified Eagle's media (DMEM; Hyclone) supplemented with 10% fetal bovine serum (FBS; Hyclone, Logan, UT, USA) in a 6-well plate at a density of 1×10^5 cells/well, followed by culture for 24 h. The media in the wells were replaced with DMEM (Hyclone) supplemented with 2% horse serum (HS; Hyclone), followed by culture for additional 6 days to differentiate the L6 cells into myotubes. Then, cells were treated with ganglioside GM3 (Cayman, Ann Arbor, MI, USA) at a concentration of 1 μM or 5 μM. After 12-h culture, cells were lysed by treatment with a cell lysis buffer. Proteins in the cell lysate were quantified by the Bradford method (Bio-Rad Laboratories Inc., Hercules, CA, USA) and the concentration of the cell lysate was then adjusted to 1 mg/mL. The cell lysate was plated in microwells bound with anti-mTOR antibody (50 μL/well) and cultured at 37° C. for 2 h. Cells were washed a total of 4 times with a washing buffer, treated with a detection antibody, and cultured at 37° C. for 1 h, rewashed a total of 4 times with a washing buffer, added with a horseradish peroxidase (HRP)-conjugated secondary antibody, and cultured at 37° C. for 30 min. Finally, after washing a total of 4 times with a washing buffer, TMB substrate was added to each well. After culture at 37° C. for 10 min, a stop solution was added to stop the TMB reaction. 2 min later, absorbance was measured at a wavelength of 450 nm to determine the level of mTOR in the myotubes treated with ganglioside GM3.
The procedure of Example 1 was repeated except that cells were treated with ganglioside GM1 (Cayman) at a concentration of 15 μM or 25 μM to examine the activity of the ganglioside for myogenic induction.
The procedure of Example 1 was repeated except that cells were treated with ganglioside GD1a (Cayman) at a concentration of 1 μM or 3 μM to examine the activity of the ganglioside for myogenic induction.
The procedure of Example 1 was repeated except that cells were treated with each of gangliosides GT1b and GQ1b (Cayman) at a concentration of 1 μM to examine the activity of the ganglioside for myogenic induction.

## CCCCCCCCCCCCC/C=C/[C@@H](O)[C@H](CO[C@@H]1OC(CO)[C@@H](O[C@@H]2OC(CO)[C@H](O[C@H]3OC(CO)[C@H](O)C(O[C@@H]4OC(CO)[C@@H](O)C(O[C@]5(C(=O)O)CC(O)[C@@H](NC(C)=O)C([C@@H](O)[C@H](CO)O[C@]6(C(=O)O)CC(O)[C@@H](NC(C)=O)C([C@@H](O)[C@H](O)CO)O6)O5)C4O)C3NC(C)=O)C(O[C@]3(C(=O)O)CC(O)[C@@H](NC(C)=O)C([C@@H](O)[C@H](CO)O[C@]4(C(=O)O)CC(O)[C@@H](NC(C)=O)C([C@@H](O)[C@H](O)CO)O4)O3)C2O)C(O)C1O)NC(=O)CCCCCCCCCCCCCCCCC (stereo partly shown) [Ganglioside GQ1b, ganglioside GQ1b]
atrogin-1
  mRNA expression level of atrogin-1 in L6 muscle cells: reduced
MuRF1
  mRNA expression level of MuRF1 in L6 muscle cells: reduced
Wistar rats
  increase of muscle (soleus) weight compared to the control group: 16.37%
  Average soleus weight: 484.1 ± 25.4 mg
mTOR
  activity of mTOR in L6 muscle cells: significantly increased

## CCCCCCCCCCCCC/C=C/[C@@H](O)[C@H](CO[C@@H]1OC(CO)[C@@H](O[C@@H]2OC(CO)[C@H](O[C@H]3OC(CO)[C@H](O)C(OC4OC(CO)C(O)[C@H](O[C@]5(C(=O)O)CC(O)[C@@H](NC(C)=O)C([C@@H](O)[C@H](O)CO)O5)C4CO)C3NC(C)=O)C(O[C@]3(C(=O)O)CC(O)[C@@H](NC(C)=O)C([C@@H](O)[C@H](CO)O[C@]4(C(=O)O)CC(O)[C@@H](NC(C)=O)C([C@@H](O)[C@H](O)CO)O4)O3)C2O)C(O)C1O)NC(=O)CCCCCCCCCCCCCCCCC (stereo partly shown) [Ganglioside GT1b, ganglioside GT1b]
atrogin-1
  mRNA expression level of atrogin-1 in L6 muscle cells: reduced
MuRF1
  mRNA expression level of MuRF1 in L6 muscle cells: reduced
Wistar rats
  increase of muscle (soleus) weight compared to the control group: 14.42%
  Average soleus weight: 476.0 ± 24.1 mg
mTOR
  activity of mTOR in L6 muscle cells: significantly increased
